Reference: ChEMBL document CHEMBL3603736, “3-Substituted pyrazoles and 4-substituted triazoles as inhibitors of human 15-lipoxygenase-1” (Bioorg Med Chem Lett, 2015)
In brackets after ≈: the same amount, converted by molar mass. Blank lines part the entries; values can stand above or below the compound they belong to. Activity calls are given as the source filed them. The rule behind the calls is not given here.

Columns and labels:
[1] = biological target: T1, Polyunsaturated fatty acid lipoxygenase ALOX15 (Homo sapiens, UniProt P16050)
T1 sequence (P16050 whole entry): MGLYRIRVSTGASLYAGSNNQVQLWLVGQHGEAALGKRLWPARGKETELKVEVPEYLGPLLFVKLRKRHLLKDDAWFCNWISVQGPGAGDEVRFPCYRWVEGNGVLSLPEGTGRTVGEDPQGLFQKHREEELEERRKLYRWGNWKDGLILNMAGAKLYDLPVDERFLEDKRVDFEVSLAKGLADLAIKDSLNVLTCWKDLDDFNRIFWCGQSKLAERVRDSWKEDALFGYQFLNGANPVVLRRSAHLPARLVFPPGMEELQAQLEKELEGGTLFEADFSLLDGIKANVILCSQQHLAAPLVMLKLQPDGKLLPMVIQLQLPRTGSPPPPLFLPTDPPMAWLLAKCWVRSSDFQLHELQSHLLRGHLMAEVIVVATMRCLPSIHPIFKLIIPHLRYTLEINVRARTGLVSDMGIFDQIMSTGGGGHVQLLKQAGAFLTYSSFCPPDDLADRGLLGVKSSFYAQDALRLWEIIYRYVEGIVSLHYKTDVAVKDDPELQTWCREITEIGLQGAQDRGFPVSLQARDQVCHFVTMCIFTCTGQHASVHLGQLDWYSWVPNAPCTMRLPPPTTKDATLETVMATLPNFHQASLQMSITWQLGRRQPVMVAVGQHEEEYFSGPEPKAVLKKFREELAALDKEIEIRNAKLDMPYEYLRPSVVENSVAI
Description: Inhibition of human 15-LOX-1 expressed in Sf9 cells assessed as reduction in conversion of arachidonic acid to 15-HETE pre-incubated 5 min before arachidonic acid substrate addition by HPLC-UV spectroscopy

[2] = biological target: T1, Polyunsaturated fatty acid lipoxygenase ALOX15; remark: listed apart in the source
Description: (§5) Inhibition of 15-LOX-1 in human L1236 cells assessed as reduction in conversion of arachidonic acid to 15-HETE pre-incubated 5 min before arachidonic acid substrate addition by HPLC-UV spectroscopy

[3] = biological target: T2, Prostaglandin G/H synthase 1 (Ovis aries) (UniProt P05979); experiment: Inhibition of ovine COX1 assessed as reduction in PGH2-derived PGF2alpha production at 10 uM by enzyme immunoassay
T2 sequence (whole entry): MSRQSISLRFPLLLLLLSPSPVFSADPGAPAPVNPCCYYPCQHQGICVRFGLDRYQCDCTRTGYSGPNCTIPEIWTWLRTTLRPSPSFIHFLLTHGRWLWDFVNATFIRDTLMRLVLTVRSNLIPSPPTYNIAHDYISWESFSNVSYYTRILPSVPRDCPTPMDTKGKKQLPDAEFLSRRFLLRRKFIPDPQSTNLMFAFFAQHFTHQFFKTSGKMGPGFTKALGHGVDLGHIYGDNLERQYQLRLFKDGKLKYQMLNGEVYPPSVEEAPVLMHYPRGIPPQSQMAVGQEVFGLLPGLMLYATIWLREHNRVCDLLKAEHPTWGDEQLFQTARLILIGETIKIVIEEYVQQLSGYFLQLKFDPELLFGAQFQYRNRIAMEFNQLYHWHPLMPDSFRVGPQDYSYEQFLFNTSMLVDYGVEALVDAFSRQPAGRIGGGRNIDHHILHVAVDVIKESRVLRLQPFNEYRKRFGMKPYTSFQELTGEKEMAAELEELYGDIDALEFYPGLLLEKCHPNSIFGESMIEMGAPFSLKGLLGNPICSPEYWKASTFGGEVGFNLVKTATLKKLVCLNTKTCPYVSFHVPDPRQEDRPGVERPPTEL

Cytochrome P450 2C9 [4] = biological target: T3, Cytochrome P450 2C9 (Homo sapiens, UniProt P11712); experiment: Inhibition of human CYP2C9; type: ADME
T3 sequence (P11712 whole entry): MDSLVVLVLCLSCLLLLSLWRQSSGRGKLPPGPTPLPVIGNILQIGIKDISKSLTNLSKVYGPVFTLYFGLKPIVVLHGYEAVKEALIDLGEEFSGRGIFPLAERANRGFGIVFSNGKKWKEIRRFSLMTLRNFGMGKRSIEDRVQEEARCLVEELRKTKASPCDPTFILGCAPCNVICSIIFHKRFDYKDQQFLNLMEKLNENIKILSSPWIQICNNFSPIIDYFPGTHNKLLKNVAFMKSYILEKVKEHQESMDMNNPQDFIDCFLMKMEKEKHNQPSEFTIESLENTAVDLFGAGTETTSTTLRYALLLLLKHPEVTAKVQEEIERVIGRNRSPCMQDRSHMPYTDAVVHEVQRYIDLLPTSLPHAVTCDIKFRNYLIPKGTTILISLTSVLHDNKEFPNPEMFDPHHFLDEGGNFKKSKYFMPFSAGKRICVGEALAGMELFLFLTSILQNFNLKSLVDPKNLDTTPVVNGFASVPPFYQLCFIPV

Cytochrome P450 3A4 [5] = biological target: T4, Cytochrome P450 3A4 (Homo sapiens, UniProt P08684); experiment: Inhibition of human CYP3A4; type: ADME
T4 sequence (P08684 whole entry): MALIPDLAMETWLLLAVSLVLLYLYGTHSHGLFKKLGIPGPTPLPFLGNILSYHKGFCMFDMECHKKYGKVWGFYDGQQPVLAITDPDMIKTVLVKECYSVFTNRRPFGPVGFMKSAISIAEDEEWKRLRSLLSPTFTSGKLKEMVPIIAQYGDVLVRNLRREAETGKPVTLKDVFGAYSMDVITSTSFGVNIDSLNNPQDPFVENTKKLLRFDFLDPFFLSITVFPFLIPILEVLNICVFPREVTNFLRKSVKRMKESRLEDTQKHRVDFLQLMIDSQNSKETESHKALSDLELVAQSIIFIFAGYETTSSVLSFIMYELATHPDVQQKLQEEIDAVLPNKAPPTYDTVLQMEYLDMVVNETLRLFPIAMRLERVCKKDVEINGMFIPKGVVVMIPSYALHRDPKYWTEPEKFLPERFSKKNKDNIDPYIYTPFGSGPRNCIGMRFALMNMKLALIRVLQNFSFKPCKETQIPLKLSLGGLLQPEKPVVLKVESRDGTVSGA

[6] = biological target: Polyunsaturated fatty acid 5-lipoxygenase (Homo sapiens) (UniProt P09917); experiment: Inhibition of 5-LOX in calcium ionophore and arachidonic acid-stimulated purified human granulocytes assessed as reduction in LTB4 formation at 10 uM by HPLC-UV spectroscopy
Polyunsaturated fatty acid 5-lipoxygenase (Homo sapiens), sequence (P09917 whole entry): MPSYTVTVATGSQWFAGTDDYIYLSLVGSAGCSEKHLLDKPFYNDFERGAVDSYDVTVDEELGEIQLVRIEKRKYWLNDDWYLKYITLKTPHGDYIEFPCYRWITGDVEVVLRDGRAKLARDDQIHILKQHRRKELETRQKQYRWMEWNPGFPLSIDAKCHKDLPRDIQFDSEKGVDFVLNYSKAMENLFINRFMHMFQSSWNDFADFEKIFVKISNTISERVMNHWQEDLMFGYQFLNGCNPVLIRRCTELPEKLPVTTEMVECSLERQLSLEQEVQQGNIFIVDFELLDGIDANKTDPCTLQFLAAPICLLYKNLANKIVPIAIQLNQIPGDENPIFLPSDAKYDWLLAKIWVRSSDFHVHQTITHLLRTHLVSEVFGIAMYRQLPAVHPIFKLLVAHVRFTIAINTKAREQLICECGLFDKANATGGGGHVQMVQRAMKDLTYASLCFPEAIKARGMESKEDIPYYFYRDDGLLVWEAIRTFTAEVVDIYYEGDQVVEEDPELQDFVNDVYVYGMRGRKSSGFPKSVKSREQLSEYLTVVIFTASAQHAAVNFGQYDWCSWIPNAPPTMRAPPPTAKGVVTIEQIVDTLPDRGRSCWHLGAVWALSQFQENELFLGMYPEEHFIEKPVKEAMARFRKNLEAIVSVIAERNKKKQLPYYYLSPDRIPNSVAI

[7] = Aqueous solubility in pH 10 buffer; type: physicochemical
[8] = biological target: Voltage-gated inwardly rectifying potassium channel KCNH2 (Homo sapiens, UniProt Q12809); experiment: Inhibition of human ERG
Voltage-gated inwardly rectifying potassium channel KCNH2, sequence (Q12809 whole entry): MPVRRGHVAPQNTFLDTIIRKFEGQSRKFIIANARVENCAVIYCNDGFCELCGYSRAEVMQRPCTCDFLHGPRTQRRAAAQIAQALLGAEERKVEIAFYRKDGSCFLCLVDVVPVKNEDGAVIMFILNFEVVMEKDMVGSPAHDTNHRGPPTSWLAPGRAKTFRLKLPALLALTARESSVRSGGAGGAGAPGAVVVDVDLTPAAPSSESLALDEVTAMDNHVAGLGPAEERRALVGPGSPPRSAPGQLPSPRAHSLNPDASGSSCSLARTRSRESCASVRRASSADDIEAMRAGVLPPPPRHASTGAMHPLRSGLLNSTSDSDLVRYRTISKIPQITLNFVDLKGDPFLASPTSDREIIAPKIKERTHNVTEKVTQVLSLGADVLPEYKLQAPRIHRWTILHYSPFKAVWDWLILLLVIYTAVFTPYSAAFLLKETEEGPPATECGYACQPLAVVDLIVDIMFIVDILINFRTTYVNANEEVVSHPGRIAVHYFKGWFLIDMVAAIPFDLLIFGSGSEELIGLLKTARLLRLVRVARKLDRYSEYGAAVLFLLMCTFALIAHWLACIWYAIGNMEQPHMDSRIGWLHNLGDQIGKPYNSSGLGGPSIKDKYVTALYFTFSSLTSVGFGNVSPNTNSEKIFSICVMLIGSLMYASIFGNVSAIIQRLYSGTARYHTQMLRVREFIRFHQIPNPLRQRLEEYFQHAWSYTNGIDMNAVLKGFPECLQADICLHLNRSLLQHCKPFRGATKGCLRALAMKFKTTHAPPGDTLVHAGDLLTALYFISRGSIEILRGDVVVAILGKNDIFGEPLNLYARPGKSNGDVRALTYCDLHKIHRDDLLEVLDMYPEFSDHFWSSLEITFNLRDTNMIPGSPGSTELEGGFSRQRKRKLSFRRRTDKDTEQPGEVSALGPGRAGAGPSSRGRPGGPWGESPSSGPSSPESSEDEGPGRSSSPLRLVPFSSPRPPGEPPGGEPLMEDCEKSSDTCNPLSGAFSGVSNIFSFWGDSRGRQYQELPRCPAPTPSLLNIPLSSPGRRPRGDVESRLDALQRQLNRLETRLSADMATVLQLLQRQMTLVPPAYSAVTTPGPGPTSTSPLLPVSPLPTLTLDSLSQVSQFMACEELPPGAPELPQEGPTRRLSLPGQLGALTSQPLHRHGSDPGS

Cytochrome P450 2C8 [9] = biological target: T5, Cytochrome P450 2C8 (Homo sapiens, UniProt P10632); experiment: Inhibition of human CYP2C8 at 10 uM; type: ADME
T5 sequence (P10632 whole entry): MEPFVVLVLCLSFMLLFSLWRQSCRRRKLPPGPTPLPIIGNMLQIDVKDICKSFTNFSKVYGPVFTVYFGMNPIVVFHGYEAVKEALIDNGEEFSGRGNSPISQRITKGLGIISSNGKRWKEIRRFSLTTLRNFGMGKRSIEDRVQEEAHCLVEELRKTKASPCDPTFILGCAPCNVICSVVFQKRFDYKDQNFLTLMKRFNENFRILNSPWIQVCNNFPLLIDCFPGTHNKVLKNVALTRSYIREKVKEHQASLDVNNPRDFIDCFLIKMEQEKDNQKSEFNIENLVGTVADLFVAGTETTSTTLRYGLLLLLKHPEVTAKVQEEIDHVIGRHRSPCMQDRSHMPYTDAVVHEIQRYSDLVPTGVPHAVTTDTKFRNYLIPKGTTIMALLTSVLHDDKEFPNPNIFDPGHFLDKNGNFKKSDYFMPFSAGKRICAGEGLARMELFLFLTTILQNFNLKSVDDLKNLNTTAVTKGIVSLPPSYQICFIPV

[10] = biological target: T6, Prostaglandin G/H synthase 2 (Homo sapiens) (UniProt P35354); experiment: Inhibition of human recombinant COX2 assessed as reduction in PGH2-derived PGF2alpha production at 10 uM by enzyme immunoassay
T6 sequence (whole entry): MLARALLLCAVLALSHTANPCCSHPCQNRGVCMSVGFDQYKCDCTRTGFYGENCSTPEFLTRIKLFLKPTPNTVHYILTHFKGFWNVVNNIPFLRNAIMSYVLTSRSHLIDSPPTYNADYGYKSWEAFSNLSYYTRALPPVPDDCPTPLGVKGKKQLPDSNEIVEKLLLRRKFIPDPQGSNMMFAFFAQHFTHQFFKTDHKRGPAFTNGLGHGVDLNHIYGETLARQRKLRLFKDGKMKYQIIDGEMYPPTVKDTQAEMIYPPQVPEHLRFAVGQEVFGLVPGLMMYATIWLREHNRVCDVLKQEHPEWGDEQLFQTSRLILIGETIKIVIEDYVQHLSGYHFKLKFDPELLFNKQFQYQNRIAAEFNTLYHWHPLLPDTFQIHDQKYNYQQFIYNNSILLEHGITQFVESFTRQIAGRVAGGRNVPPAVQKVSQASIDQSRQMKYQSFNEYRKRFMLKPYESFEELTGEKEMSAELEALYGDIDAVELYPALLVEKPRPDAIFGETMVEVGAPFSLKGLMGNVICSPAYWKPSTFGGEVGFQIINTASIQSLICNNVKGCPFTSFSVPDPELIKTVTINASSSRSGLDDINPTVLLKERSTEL

Caco-2 = experiment: Permeability in human Caco2 cells; type: ADME, cell-based
[11] = biological target: Polyunsaturated fatty acid lipoxygenase ALOX12 (Homo sapiens) (UniProt P18054); experiment: Inhibition of human platelet 12-LOX assessed as reduction in conversion of arachidonic acid to […] at 10 uM pre-incubated 5 min before arachidonic acid substrate addition by HPLC-UV spectroscopy
Polyunsaturated fatty acid lipoxygenase ALOX12 (Homo sapiens), sequence (P18054 whole entry): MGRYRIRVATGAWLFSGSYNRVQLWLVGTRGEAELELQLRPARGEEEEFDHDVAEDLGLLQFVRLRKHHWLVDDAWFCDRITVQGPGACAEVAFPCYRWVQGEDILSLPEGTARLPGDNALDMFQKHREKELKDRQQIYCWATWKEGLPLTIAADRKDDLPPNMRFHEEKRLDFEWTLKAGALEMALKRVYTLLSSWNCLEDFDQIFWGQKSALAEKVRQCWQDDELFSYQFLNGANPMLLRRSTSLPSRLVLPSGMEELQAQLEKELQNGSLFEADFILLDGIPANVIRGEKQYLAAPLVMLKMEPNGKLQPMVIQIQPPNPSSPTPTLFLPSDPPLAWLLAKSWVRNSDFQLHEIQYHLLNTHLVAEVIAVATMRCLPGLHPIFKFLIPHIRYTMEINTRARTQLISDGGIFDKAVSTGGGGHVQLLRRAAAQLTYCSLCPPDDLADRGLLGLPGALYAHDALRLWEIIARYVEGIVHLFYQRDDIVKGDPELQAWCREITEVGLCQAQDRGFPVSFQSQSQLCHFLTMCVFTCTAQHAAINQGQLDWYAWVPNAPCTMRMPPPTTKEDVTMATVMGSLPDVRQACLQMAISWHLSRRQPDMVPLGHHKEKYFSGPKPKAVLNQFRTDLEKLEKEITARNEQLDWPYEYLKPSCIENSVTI

[12] = Aqueous solubility in pH 7.4 buffer; type: physicochemical
[13] = biological target: Arachidonate 12-lipoxygenase (Rattus norvegicus, UniProt Q02759); experiment: (§1) Inhibition of rat 15-LOX-1 expressed in Sf9 cells assessed as reduction in conversion of arachidonic acid to 15-HETE pre-incubated 5 min before arachidonic acid substrate addition by HPLC-UV spectroscopy
[14] = biological target: Arachidonate 12-lipoxygenase (Rattus norvegicus) (UniProt Q02759); experiment: as §1
[15] = Intrinsic clearance in human microsomes; type: ADME, Microsome
CYP2B6 = CYP2B6 (Homo sapiens, UniProt P20813); experiment: Inhibition of human CYP2B6 at 10 uM; type: ADME
Cytochrome P450 2C8 [16] = biological target: T5, Cytochrome P450 2C8; experiment: Inhibition of human CYP2C8; type: ADME
Cytochrome P450 2C19 [17] = biological target: T7, Cytochrome P450 2C19 (Homo sapiens, UniProt P33261); experiment: Inhibition of human CYP2C19; type: ADME
T7 sequence (P33261 whole entry): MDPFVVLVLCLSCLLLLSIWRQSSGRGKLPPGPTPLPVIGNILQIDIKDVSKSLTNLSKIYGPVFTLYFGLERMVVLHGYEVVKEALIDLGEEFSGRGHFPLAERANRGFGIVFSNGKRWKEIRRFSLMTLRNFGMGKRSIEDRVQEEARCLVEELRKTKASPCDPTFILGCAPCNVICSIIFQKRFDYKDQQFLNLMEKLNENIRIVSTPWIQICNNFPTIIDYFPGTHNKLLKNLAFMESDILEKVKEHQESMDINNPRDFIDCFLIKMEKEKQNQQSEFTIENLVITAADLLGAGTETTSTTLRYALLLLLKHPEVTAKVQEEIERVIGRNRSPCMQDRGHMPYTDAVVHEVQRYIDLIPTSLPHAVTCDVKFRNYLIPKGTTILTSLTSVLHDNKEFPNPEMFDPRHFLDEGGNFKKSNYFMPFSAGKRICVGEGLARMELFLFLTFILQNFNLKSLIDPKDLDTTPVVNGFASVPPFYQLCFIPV

[18] = Half life in human microsomes; type: ADME, Microsome
[19] = biological target: Arachidonate 12-lipoxygenase (Sus scrofa, UniProt P16469); experiment: Inhibition of pig 15-LOX-1 expressed in Sf9 cells assessed as reduction in conversion of arachidonic acid to 15-HETE pre-incubated 5 min before arachidonic acid substrate addition by HPLC-UV spectroscopy
[20] = Inhibition of dog 15-LOX-1 expressed in Sf9 cells assessed as reduction in conversion of arachidonic acid to 15-HETE pre-incubated 5 min before arachidonic acid substrate addition by HPLC-UV spectroscopy; set-up: species or system Canis lupus familiaris
Cytochrome P450 1A2 [21] = biological target: T8, Cytochrome P450 1A2 (Homo sapiens, UniProt P05177); experiment: Inhibition of human CYP1A2; type: ADME
T8 sequence (P05177 whole entry): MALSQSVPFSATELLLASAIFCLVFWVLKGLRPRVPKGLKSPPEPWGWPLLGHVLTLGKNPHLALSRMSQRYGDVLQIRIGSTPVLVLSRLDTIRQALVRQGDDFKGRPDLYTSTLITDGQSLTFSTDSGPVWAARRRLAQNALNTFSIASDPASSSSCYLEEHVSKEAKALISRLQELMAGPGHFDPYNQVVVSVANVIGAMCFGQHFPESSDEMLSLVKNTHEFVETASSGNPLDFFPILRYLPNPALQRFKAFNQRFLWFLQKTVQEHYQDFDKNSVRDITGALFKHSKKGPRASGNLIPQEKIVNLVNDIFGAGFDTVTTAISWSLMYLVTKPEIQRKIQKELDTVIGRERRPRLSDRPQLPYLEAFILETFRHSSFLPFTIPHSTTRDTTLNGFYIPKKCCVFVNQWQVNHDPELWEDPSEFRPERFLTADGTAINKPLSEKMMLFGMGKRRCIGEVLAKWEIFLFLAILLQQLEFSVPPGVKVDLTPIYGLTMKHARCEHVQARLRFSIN

Cytochrome P450 2D6 = Cytochrome P450 2D6 (Homo sapiens, UniProt P10635); experiment: Inhibition of human CYP2D6; type: ADME
[22] = Protein binding in plasma (unknown origin); type: ADME, cell-free; conditions: read-out: PPB (converted)
[23] = biological target: Polyunsaturated fatty acid lipoxygenase ALOX15B (Homo sapiens, UniProt O15296); experiment: Inhibition of human 15-LOX-2 expressed in Sf9 cells assessed as reduction in conversion of arachidonic acid to 15-HETE pre-incubated 5 min before arachidonic acid substrate addition by HPLC-UV spectroscopy
Escherichia coli = experiment: Genotoxicity in Escherichia coli by SOS/umu test; type: toxicity, organism-based
[24] = Aqueous solubility in pH 2.0 buffer; type: physicochemical
CYP2E1 = CYP2E1 (Homo sapiens, UniProt P05181); experiment: Inhibition of human CYP2E1 at 10 uM; type: ADME
[25] = biological target: T1, Polyunsaturated fatty acid lipoxygenase ALOX15; conditions: l1236
Description: as §5

Cytochrome P450 2C9 [26] = biological target: T3, Cytochrome P450 2C9; experiment: (§2) Inhibition of human CYP2C9 at 10 uM; type: ADME; conditions: 10 µM
Cytochrome P450 2C19 [27] = biological target: T7, Cytochrome P450 2C19; experiment: (§3) Inhibition of human CYP2C19 at 10 uM; type: ADME; conditions: 10 µM
Cytochrome P450 1A2 [28] = biological target: T8, Cytochrome P450 1A2; experiment: (§4) Inhibition of human CYP1A2 at 10 uM; type: ADME; conditions: 10 µM
CYP2C9 = CYP2C9 (Homo sapiens, UniProt P11712); experiment: as §2; type: ADME
CYP2C19 = CYP2C19 (Homo sapiens, UniProt P33261); experiment: as §3; type: ADME
CYP2D6 = CYP2D6 (Homo sapiens, UniProt P10635); experiment: Inhibition of human CYP2D6 at 10 uM; type: ADME
Cytochrome P450 3A4 [29] = biological target: T4, Cytochrome P450 3A4; experiment: Inhibition of human CYP3A4 at 10 uM; type: ADME
CYP1A2 = CYP1A2 (Homo sapiens, UniProt P05177); experiment: as §4; type: ADME
CYP1A2, sequence (P05177 whole entry): as above

SMILES: c1ccc2oc(-c3cc[nH]n3)nc2c1
IC50 [1]: 3.27 µM
IC50 [2]: 0.638 µM

SMILES: O=C(Nc1ccc(F)cc1)c1cn[nH]n1
IC50 [1]: 0.947 µM
IC50 [2]: 2.43 µM

SMILES: Cc1c(C(=O)Nc2ccc(F)cc2Cl)n[nH]c1[Si](C)(C)C
IC50 [1]: 0.672 µM
IC50 [2]: 1.33 µM

SMILES: O=C(Nc1ccc(Cl)cc1Cl)c1cn[nH]n1
inhibition [3]: 4%
IC50 (Cytochrome P450 2C9 [4]; read-out: IC50): 0.5 µM
IC50 (Cytochrome P450 3A4 [5]; read-out: IC50): 58.1 µM
inhibition [6]: < 50%
solubility [7]: > 0.287 mg/mL
inhibition (INH) [8]: Not Active
inhibition (INH) (Cytochrome P450 2C8 [9]): Not Active
inhibition [10]: 10%
permeability (Caco-2): permeable
inhibition [11]: 42%
solubility [12]: 0.0836 mg/mL (≈ 325 µM)
IC50 [13]: 24 µM
Imax [14]: 79%
microsomal CLint [15]: < 1 µL/min/mg
inhibition at 10 µM (CYP2B6): 93%
IC50 (Cytochrome P450 2C8 [16]): Not Active
IC50 (Cytochrome P450 2C19 [17]; read-out: IC50): 1.4 µM
half-life [18]: > 1.67 h
IC50 [19]: 0.078 µM
IC50 [20]: 2.4 µM
IC50 (Cytochrome P450 1A2 [21]): 21.6 µM
IC50 (Cytochrome P450 2D6): > 100 µM
fraction unbound [22]: < 0.01
IC50 [23]: Not Active
Activity (Escherichia coli): Non-toxic
solubility [24]: 0.0243 mg/mL (≈ 94.5 µM)
inhibition at 10 µM (CYP2E1): 10%

SMILES: CS(=O)(=O)Nc1cc(C(=O)Nc2ccc(F)cc2Cl)n[nH]1
IC50 [25]: Not Active

SMILES: O=C(Nc1ccncc1)c1cc[nH]n1
IC50 [25]: Not Active

SMILES: Nc1cc(C(=O)Nc2ccc(F)cc2Cl)n[nH]1
IC50 [1]: 5.98 µM
IC50 [2]: 0.334 µM

SMILES: O=C(Nc1ccc2ccccc2n1)c1cc[nH]n1
inhibition [3]: 9%
IC50 (Cytochrome P450 2C9 [4]): Not Active
IC50 [1]: 0.18 µM
solubility [7]: 0.0101 mg/mL (≈ 42.4 µM)
inhibition (INH) (Cytochrome P450 2C9 [26]): Not Active
inhibition (INH) [8]: Not Active
IC50 [2]: 0.092 µM
inhibition (INH) (Cytochrome P450 2C19 [27]): Not Active
inhibition [10]: inactive
permeability (Caco-2): permeable
solubility [12]: 0.0101 mg/mL (≈ 42.4 µM)
microsomal CLint [15]: 7 µL/min/mg
IC50 (Cytochrome P450 2C19 [17]): Not Active
half-life [18]: > 1.67 h
fraction unbound [22]: 0.072
inhibition (INH) (Cytochrome P450 1A2 [28]): 75%
Activity (Escherichia coli): Non-toxic
solubility [24]: 0.573 mg/mL (≈ 2410 µM)

More lines, main results first:

IC50 [1]: 3.97 µM
IC50 [2]: 3.11 µM
SMILES: O=C(Nc1ccc(F)cn1)c1cn[nH]n1

IC50 [1]: 0.002 µM
IC50 [2]: 0.034 µM
SMILES: Clc1ccc2nc(-c3n[nH]c(Cl)c3Cl)oc2c1

inhibition [3]: inactive
IC50 (Cytochrome P450 3A4 [5]): Not Active
inhibition [6]: < 50%
inhibition at 10 µM (CYP2C9): 26%
inhibition at 10 µM (CYP2C19): 6%
inhibition [10]: inactive
permeability (Caco-2): permeable
inhibition [11]: < 50%
inhibition at 10 µM (CYP2D6): 9%
solubility [12]: 0.0034 mg/mL (≈ 16.5 µM)
microsomal CLint [15]: 17 µL/min/mg
half-life [18]: 0.6 h
inhibition (INH) (Cytochrome P450 3A4 [29]): Not Active
fraction unbound [22]: 0.071
inhibition at 10 µM (CYP1A2): 45%
SMILES: O=C(Nc1ccc(F)cn1)c1cc[nH]n1
inhibition (INH) [8]: Not Active
Activity (Escherichia coli): Non-toxic
